In patent US6503919B1, “Compounds of 7-oxo-2,3,7,14-tetrahydro-1H-benzo[b]pyrano[3,2-h]acridin carboxylate” (Les Laboratoires Server, priority 1999, dated 2003):

Tests used:
[1] = test system: murine leukaemia L1210 and human colon carcinoma HT-29; test: In vitro cytotoxicity, Microculture Tetrazolium Assay; type: cell-based; conditions: 4 doubling periods: 48 hours (L1210) or 96 hours (HT-29); cell line not stated; read-out: IC50 (cytotoxic concentration that inhibits the proliferation of the treated cells by 50%)
Procedure: The murine leukaemia L1210 and the human colon carcinoma HT-29 were used in vitro. The cells are cultured in complete RPMI 1640 culture medium containing 10% foetal calf serum, 2 mM glutamine, 50 U/ml of penicillin, 50 μg/ml of streptomycin and 10 mM Hepes, pH: 7.4. The cells are distributed in microplates and exposed to the cytotoxic compounds for 4 doubling periods, that is to say 48 hours (L1210) or 96 hours (HT-29). The number of viable cells is then quantified by a colorimetric assay, the Microculture Tetrazolium Assay (J. Carmichael et al., Cancer Res., 47, 936-942, (1987)). The results are expressed as IC50 values, which is the cytotoxic concentration that inhibits the proliferation of the treated cells by 50%.

P 388 (murine leukaemia) = test: Anti-tumour activity on the leukaemia P 388; type: in vivo; conditions: B6D2F1 mice, intraperitoneal route on day 1
Procedure: The line P 388 (murine leukaemia) was supplied by the National Cancer Institute (Frederick, USA). The tumour cells (10^6 cells) were inoculated on day 0 into the peritoneal cavity of female B6D2F1 mice (Iffa Credo, France). Six mice weighing from 18 to 20 g were used per experimental group. The compounds were administered by the intraperitoneal route on day 1.
The anti-tumour activity is expressed as % of T/C: [formula]

Row | melting point [°C] | SMILES | IC50 [1] [µM] | anti-tumour activity in the P 388 model (in words) (P 388 (murine leukaemia))
1 | 154 | COc1cc2c(c3c1c(=O)c1cc4ccccc4cc1n3C)[C@@H](OC(C)=O)[C@@H](OC(=O)CCC(=O)O)C(C)(C)O2 (racemic) [Example 1, (±)-cis-4-{[1-(Acetyloxy)-6-methoxy-3,3,14-trimethyl-7-oxo-2,3,7,14-tetrahydro-1H-benzo[b]pyrano[3,2-h]acridin-2-yl]oxy}-4-oxobutanoic acid] | 2 | –
2 | 155 | COc1cc2c(c3c1c(=O)c1cc4ccccc4cc1n3C)[C@@H](OC(C)=O)[C@@H](OC(=O)CCCC(=O)O)C(C)(C)O2 (racemic) [Example 3, (±)-cis-5-{[1-(Acetyloxy)-6-methoxy-3,3,14-trimethyl-7-oxo-2,3,7,14-tetrahydro-1H-benzo[b]pyrano[3,2-h]acridin-2-yl]oxy}-5-oxopentanoic acid] | – | –
3 | 128 | COc1cc2c(c3c1c(=O)c1cc4ccccc4cc1n3C)[C@@H](OC(=O)CCC(=O)O)[C@@H](OC(=O)CCC(=O)O)C(C)(C)O2 (racemic) [Example 7, (±)-cis-4-({1-[(3-Carboxypropanoyl)oxy]-6-methoxy-3,3,14-trimethyl-7-oxo-2,3,7,14-tetrahydro-1H-benzo[b]pyrano[3,2-h]acridin-2-yl}oxy)-4-oxobutanoic acid] | 2.3 | –
4 | 118 | COc1cc2c(c3c1c(=O)c1cc4ccccc4cc1n3C)[C@@H](OC(=O)CCCC(=O)O)[C@@H](OC(=O)CCCC(=O)O)C(C)(C)O2 (relative stereo) [Example 22, cis-5-({1-[(4-Carboxybutanoyl)oxy]6-methoxy-3,3,14-trimethyl-7-oxo-2,3,7,14-tetrahydro-1H-benzo[b]pyrano[3,2-h]acridin-2-yl}oxy)-5-oxopentanoic acid] | – | –
5 | – | COc1cc2c(c3c1c(=O)c1ccccc1n3C)C=CC(C)(C)O2 [acronycine] | – | only marginally active
